The source of these data is patent publication US12458659B2, “Methods for treating macrophage-mediated diseases, and methods of identifying agents useful therefore” (The Regents of the University of California, priority 2019, dated 2025).

Common to all, as to format: cell-based, mouse
Test [1] deals with NLRP3 inflammasome. Briefly: IL-1β release by LPS-primed macrophages stimulated with NLRP3 activators (ELISA). Conditions: LPS-primed. How it is done:
Macrophage culture and stimulation—Femurs and tibias from C57BL/6 mice, Ampkα1^−/− mice, and Il10rb^−/− mice at 6-10 weeks of age were used to generate bone-marrow-derived macrophages (BMDM) as described (Hornung et al., 2008). Macrophages were cultured in DMEM supplemented with 10% FBS, 20% L929-cell conditioned medium, and 100 U/ml penicillin-streptomycin for 7-10 days. Bone marrow was isolated from MWS Nlrp3^A350VneoRCreT, FCAS Nlrp3^L351PneoCreT and NOMID Nlrp3^D301NneoCreT conditional knock-in mice (Bonar et al., 2012; Brydges et al., 2009), and were allowed to differentiate over 7 days with addition of fresh mouse recombinant GMCSF every three days. (Z)-4-hydroxitamoxifen at 0.4 μg/ml was added to cells 24 hr prior to treatment to induce the mutant Nlrp3 allele. Immortalized mouse BMDM were grown in DMEM supplemented with 10% FBS and 100 U/ml penicillin-streptomycin. All cells were grown at 37° C. with 5% CO2. NLRP3 inflammasome activation was induced priming for 4 hr with ultrapure LPS (100 ng/ml) followed by treatment with the NLRP3 activators ATP (4 mM) and nigericin (10 μM) for 45 min, unless otherwise indicated, and monosodium urate (MSU) crystals (400 μg/ml) and 1,2-dioleoyl-3-trimethylammoniumpropane (DOTAP) liposomes (50 μg/ml) for 3 hr. In Nlrp3 mutant macrophages IL-1b production was induced by LPS treatment for 16 hr at 37° C., whereas FCAS macrophages were incubated at 32° C. without LPS addition. AIM2 inflammasome activation was induced by 4 hr LPS priming and transfection with lipofectamine 3000 and the AIM2 activator poly(dA:dT) (1 μg/ml) for 8 hr. For choline deprivation experiments, the cells were cultured in CMRL1066 medium with or without choline for 2-3 hr before priming with LPS and kept during the experiment.
Protein Immunoblotting and ELISA—Mitochondria were isolated using Mitochondria Isolation kit. Whole cell lysates were prepared in NP40 buffer containing a protease inhibitor cocktail and a phosphatase inhibitor cocktail, and supernatants were analyzed by SDS-PAGE. […]

The test system of test [2] is NLRP3 inflammasome components. Briefly: Immunoblot of NLRP3 inflammasome components in BMDM. The conditions noted are these: BMDM pretreated with RSM932A. How it is done: Protein Immunoblotting and ELISA—Mitochondria were isolated using Mitochondria Isolation kit. Whole cell lysates were prepared in NP40 buffer containing a protease inhibitor cocktail and a phosphatase inhibitor cocktail, and supernatants were analyzed by SDS-PAGE. Proteins were transferred into PVDF membranes, blocked in 5% BSA and 1×TBST for 1 hr, and incubated with indicated antibodies overnight. Secondary antibodies were added for 1 hr and detection was done using CLARITY™ Western ECL Substrate (Biorad). Paired antibodies (capture and detection) and standard recombinant mouse IL-1β (R&D Systems), and TNF and IL-6 (eBioscience) were used to determine cytokine concentrations according to manufacturer's instructions.

Test [3] deals with BMDM. Briefly: Mitochondrial membrane potential (TMRM). Conditions: RSM932A-pretreated, LPS-primed; at least as effectively as CCCP. The method, then:
Mitochondrial Function—Mitochondrial membrane potential (Ψm) was measured using TMRM (#T668, Life Technologies) according to manufacturer's instructions. Briefly, RSM932A-pretreated BMDM and shCtrl and shChoKα iBMDM were primed with LPS for 4 hr. Cells were stained with 200 nM TMRM for 30 min at 37° C., and then treated with CCCP (5 μM) for 5 min. After washing twice, fluorescence intensity was determined per manufacturer's instructions using a FilterMax F5 multimode plate reader (Molecular Devices), Mitochondrial reactive oxygen species (mtROS) was measured using MitoSOX (Invitrogen) as described (Zhong et al., 2016c). […] After washing with PBS, fluorescence intensity was determined at 510/580 nm using a FilterMax F5 plate reader. NAD^+/NADH ratio was measured using NAD^+/NADH Cell-Based Assay kit according to manufacturer's instructions (Cayman Chemical Company). […] Absorbance was measured at 450 nm using FilterMax F5 plate reader. Complex V ATP synthase activity was measured in mitochondria isolated from BMDM treated with LPS for 24 hr using Complex V Activity Assay kit (Cayman Chemical Company) according to manufacturer's instructions. Absorbance was measured at 340 nm at 30-second intervals for 30 min using a FilterMax F5 plate reader. Cellular ATP was measured after 24 hr LPS stimulation using CellTiter-Glo Luminescent Assay (Promega) as described (Ip et al., 2017). […]

The subject of test [4] is BMDM. Briefly: Cytosolic mtDNA (QPCR). Conditions: RSM932A-pretreated BMDM, LPS-primed, ATP or nigericin. How it is done: Cellular fractionation and measurement of cytosolic mtDNA—BMDM were primed with LPS and stimulated with an NLRP3 inflammasome activator. Cellular fractionation was performed using Mitochondrial Isolation kit (ThermoScientific) according to manufacturer's instructions. Cytosolic mtDNA was analyzed as described (Nakahira et al., 2011). Briefly, DNA was isolated from 300 μl of the cytosolic fractions using All Prep DNA/RNA kit, and mitochondrial DNA encoding cytochrome c oxidase 1 and D-Loop were measured by QPCR with an equal volume of the DNA solution. Nuclear DNA encoding 18S ribosomal RNA and Tert was used for normalization. Primer sequences were obtained from the NIH qPrimerDepot (mouseprimerdepot.nci.nih.gov) and provided by Integrated DNA Technologies, as set forth below.

On to `C/[N+](c1ccc(Cl)cc1)=c1\ccn(Cc2ccc(-c3ccc(Cn4cc/c(=[N+](/C)c5ccc(Cl)cc5)c5ccccc54)cc3)cc2)c2ccccc12` [RSM932A], for which the IL-1β production result in test [1] (BMDM pretreated overnight with 5 μM RSM932A, ATP or MSU-stimulated, compared with ChoKα knockdown (reduced)) is recorded as “produced a similar effect”. For the same compound, in test [1] (MSU-stimulated BMDM pretreated overnight with 5 μM RSM932A, p<0.005), the “reduction of MSU-induced IL-1β release” value worked out at 71%. In addition, the “expression of NLRP3 inflammasome components (caspase-1, NLRP3, ASC, pro-IL-1β induced by LPS)” value in test [2] is “did not alter”. In test [3], the “mitochondrial membrane potential (Ψm)” value is given as “reduced”. Moreover, the “amount of cytosolic mtDNA” value in test [4] is recorded as “reduced”.
